# Experimental data reported in patent publication US7217808B2, “RFRP-3 and DNA thereof” (Takeda Pharmaceutical Company, Ltd., priority 2001, dated 2007).
# What was measured:
# [1] = molecular target: T1, rOT7T022L (Rattus norvegicus, UniProt Q9EP86); assay: Cytosensor acidification rate of rOT7T022L receptor-expressing CHO cells; assay type: cell-based; conditions: peptide exposure 7 min 2 sec
# T1 construct: expressed in transfected cells; host or cells: CHO dhfr- cells (clone CHO-rOT7T022L)
# Description: The rOT7T022L receptor-expressing CHO cells obtained in (2) in Reference Example 7 were sown in cytosensor capsules at 2.7×10^5 cells/capsule. After overnight culture, the capsules were mounted in the work station of a cytosensor. The assay medium (0.1% bovine serum albumin-containing low buffered RPMI1640 medium) positioned in the flow route of the cytosensor was supplied to the cells under pump ON (80 sec)/pump OFF (40 sec) cycles. In each cycle, the change ratio of extracellular pH for 30 sec starting from 8 sec after the stop of the pump was calculated as acidification rate. The time course of acidification rate was monitored. When this rate began to show stable values, the flow route was shifted to thereby expose individual peptide to the cells for 7 min and 2 sec. The values of acidification rate in individual wells were normalized taking the values for the 3 cycles immediately before the peptide exposure as 100%.
# [2] = molecular target: T2, human-type OT7T022 (Homo sapiens, UniProt Q9GZQ6); assay: Binding inhibition of 125I-Tyr-hRFRP-3(8) to membrane fraction from human-type OT7T022-expressing CHO cells; conditions: room temperature 1.5 hr
# T2 construct: expressed in transfected cells; host or cells: CHO cells
# Protocol: With this buffer, the membrane fraction from human-type OT7T022-expressing CHO cells was diluted to give a concentration of 1 μg/25 μl. […] Sample solutions prepared, NSB and the assay buffer were dispensed into polypropylene 96-well plates in quadruplicate as total 50 μl/well. […] Twenty-five microliter of the membrane fraction solution from human-type OT7T022-expressing CHO cells was added thereto, agitated with a plate mixer and incubated at room temperature for 1.5 hr. Using a cell harvester for 96-well plates, the contents of each well were adsorbed onto a filter unit (GF/C, treated with polyethylene imine) pre-moisturized with washing buffer (50 mM Tris-HCl, pH 7.5). After washing 5 times with the washing buffer, the adsorbate was dried thoroughly. The lower part of the filter unit was sealed. Then, 50 μl of liquid scintillator was added to each well and the upper part of the filter unit was sealed. Radioactivity was measured with a Top Count (Packard), and data were analyzed in triplicate.
# [3] = tested on: adult male Wistar rats; assay: Plasma pituitary hormone levels after administration into the third ventricle; assay type: in vivo, rat; conditions: 10 mnol into the third ventricle; for plasma prolactin levels: vs PBS control
# Protocol: Effects of the administration of the peptide represented by SEQ ID NO: 39 into the third ventricle upon pituitary hormone levels were examined. Briefly, adult male Wistar rats (body weight 290–350 g at the time of surgery) were anesthetized by intraperitoneal administration of 50 mg/kg pentobarbital and fixed in a stereotaxic apparatus for rat brain. The incisor bar was set 3.3 mm below the interaural line. The skull surface was exposed, and a hole was drilled in the skull with a dental drill in order to implant a guide cannula Further, an anchor screw was embedded at one place around the hole. A stainless guide cannula AG-12 (inside dia. 0.4 mm, outside dia. 0.5 mm; Eicom) was inserted so that its tip is located above the third ventricle. The stereotaxic coordinates were set as follows according to the atlas of Paxinos and Watson (1998): AP: +7.2 mm (from the interaural line), L: 0.0 mm, H: +2.0 mm (from the interaural line). The guide cannula was fixed onto the skull with instant glue, dental cement and the anchor screw. A stainless dummy cannula AD-12 (outside dia. 0.35 mm; Eicom) was inserted into the guide cannula and fixed with a cap nut (Eicom). After the surgery, the rats were bred separately in individual cages for more than one week to allow recovery.
# The day before the experiment, the rats that had undergone the above surgery were anesthetized by intraperitoneal administration of 50 mg/kg pentobarbital and fixed on anatomical pads in face-up position. Then, a catheter (SP35; Natsume Seisakusho) was inserted into the right jugular vein. The next day, 400 μl of blood was taken from the jugular vein. In order to prevent blood coagulation, 20 μl of physiological saline containing 200 units/ml heparin was put in advance in the injection syringe. The cap nut and the dummy cannula installed on the rat skull were removed. Instead of them, a stainless microinjection cannula AMI13 (inside dia. 0.17 mm, outside dia. 0.35 mm; Eicom) connected with a Teflon tube (length 50 cm, inside dia. 0.1 mm, outside dia. 0.4 mm; Eicom) was inserted into the guide cannula. The length of the microinjection cannula was adjusted in advance so that 1 mm of its tip is exposed from the guide cannula. One end of the Teflon tube was connected with a microsyringe pump. Then, a total 10 μl of PBS alone or PBS containing the peptide represented by SEQ ID NO: 39 was injected into the third ventricle at a flow rate of 5 μl/min. One minute after the completion of the injection, the microinjection cannula was removed, and a dummy cannula was fixed again with a cap nut. A 400 μl blood sample was taken from the cannula inserted into the jugular vein immediately before the start of the intraventricular administration and at 10, 20, 30, 40 and 60 min after the start of the intraventricular administration. The collected blood was centrifuged at 5,000 rpm for 10 min in a high-speed refrigerated microcentrifuge (MR-150; Tomy Seiko) to recover the supernatant (plasma). The prolactin levels in the plasma were measured by radioimmunoassay.
# The results are expressed as mean±S.E.M. Whether there is a significant difference between the group to which PBS containing the peptide represented by SEQ ID NO: 39 was administered and the control group to which PBS alone was administered was tested by Student's t-test. Differences were assessed with two-sided tests, and significance level 5% or below was judged statistically significant.
# [4] = molecular target: T3, Human OT7T022 receptor (Homo sapiens, UniProt Q9GZQ6); assay: Effect of pertussis toxin upon activation of human OT7T022 receptor (cAMP production inhibition); assay type: cell-based; conditions: 0.1 μM peptide, 1 μM forskolin, 100 ng/ml pertussis toxin overnight
# T3 construct: expressed in transfected cells; host or cells: CHO cells
# Protocol: The human OT7T022 receptor-expressing CHO cells obtained in Example A8 were plated in 24-well plates at 1×10^5 cells/well and cultured overnight. Then, the medium was changed for 100 ng/ml pertussis toxin (Sigma)-containing medium or a control medium, and the cells were cultured overnight. The cells were washed with Hanks' buffer (HBSS) supplemented with 0.05% BSA and 0.2 mM IBMX and then pre-incubated in the same buffer at 37° C., for 30 min. Subsequently, the buffer was exchanged for HBSS supplemented with 0.05% BSA and 0.2 mM IBMX, HBSS supplemented with 1 μM forskolin alone, or HBSS supplemented with 1 μM forskolin and a peptide at various concentrations, and the cells were incubated at 37° C. for 30 min. After the incubation, the buffer was exchanged for HBSS supplemented with 0.05% BSA and 0.2 mM IBMX (black column), this buffer supplemented with 1 μM forskolin alone (white column), or this buffer supplemented with 1 μM forskolin and 0.1 μM RFRP-1-12 (peptide having the amino acid sequence which is from position 81 (Met) to position 92 (Phe) of SEQ ID NO: 1) (column with slant lines), and the cells were incubated at 37° C. for 30 min. After the incubation, intracellular cAMP was extracted and determined for each well according to the protocol attached to the cAMP EIA Kit (Amersham). […]
# T1 sequence (Q9EP86 whole entry): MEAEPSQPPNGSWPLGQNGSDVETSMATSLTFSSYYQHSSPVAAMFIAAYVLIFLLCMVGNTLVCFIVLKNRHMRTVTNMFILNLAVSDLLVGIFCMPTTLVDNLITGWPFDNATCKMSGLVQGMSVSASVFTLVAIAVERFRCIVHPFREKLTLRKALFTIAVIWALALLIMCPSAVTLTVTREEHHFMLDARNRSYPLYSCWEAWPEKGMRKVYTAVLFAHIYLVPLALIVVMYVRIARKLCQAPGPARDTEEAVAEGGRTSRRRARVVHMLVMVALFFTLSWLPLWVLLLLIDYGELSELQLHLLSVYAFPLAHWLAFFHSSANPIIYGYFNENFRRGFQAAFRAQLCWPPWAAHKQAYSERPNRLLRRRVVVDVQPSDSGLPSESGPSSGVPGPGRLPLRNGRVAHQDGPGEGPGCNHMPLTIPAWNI
# T3 sequence (Q9GZQ6 whole entry): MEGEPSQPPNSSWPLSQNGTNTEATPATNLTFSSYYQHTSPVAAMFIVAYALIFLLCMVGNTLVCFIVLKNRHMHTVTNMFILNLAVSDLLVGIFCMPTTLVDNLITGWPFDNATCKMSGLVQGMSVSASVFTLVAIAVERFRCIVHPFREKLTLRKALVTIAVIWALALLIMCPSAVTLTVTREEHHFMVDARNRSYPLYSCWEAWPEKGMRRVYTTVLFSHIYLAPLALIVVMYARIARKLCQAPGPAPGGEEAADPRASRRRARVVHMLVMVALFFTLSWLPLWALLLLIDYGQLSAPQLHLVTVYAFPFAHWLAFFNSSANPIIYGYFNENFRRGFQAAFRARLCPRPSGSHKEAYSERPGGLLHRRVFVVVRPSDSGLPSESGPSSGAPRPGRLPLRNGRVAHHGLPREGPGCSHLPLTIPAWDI
# T2 sequence (Q9GZQ6 whole entry): as above
Compound,reactivity of rOT7T022L receptor-expressing CHO cells (acidification rate) [1],IC50 [2] [nM],ACTH level in the plasma [3],GH level in the plasma [3],LH level in the plasma [3],TSH level in the plasma [3],plasma prolactin levels ([3]; 60 min after administration),"plasma prolactin levels ([3]; at 20, 30 and 40 min after administration)",plasma prolactin levels ([3]; from 10 min after administration),cAMP production inhibitory activity in cells treated with pertussis toxin [4]
CC(C)C[C@H](NC(=O)[C@H](CC(N)=O)NC(=O)[C@@H]1CCCN1C(=O)[C@@H](N)C(C)C)C(=O)N1CCC[C@H]1C(=O)N[C@@H](CCC(N)=O)C(=O)N[C@@H](CCCNC(=N)N)C(=O)N[C@@H](Cc1ccccc1)C(N)=O,reactive,,,,,,,,,
H-ATANLPLRSGRNMEVSLVRRVPNLPQRF-NH2 [hRFRP-3 (28)],,1.6,,,,,,,,
H-MPHSFANLPLRF-NH2,reactive,,did not show significant changes,did not show significant changes,did not show significant changes,did not show significant changes,significant difference was observed,increased significantly,increasing tendency,disappeared
